Measurements published in the supplement of paper PMC8253809.

Experiments:
[1] = system: iAstro (astrocyte control); test: area under dose-response curve of % growth inhibition (log2 RLU vs DMSO / staurosporine), 1e-11 to 1e-4 M (% x log10 M); higher = more growth inhibition
Procedure, shortened: (§1)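 On 1% Geltrex-coated 384-well plates, patient-derived pHGG/DIPG cell lines and astrocytes were treated in triplicate across 10 threefold dilutions (mean top concentration 35 μM) for 7 days, with iAstro treated for 3 days, at 37 °C, 5% CO2. Log2-transformed CellTiter-Glo luminescence was normalised per plate to % activity between solvent and positive controls. Area under the curve was obtained by the trapezoid rule from a log-logistic fit, or from a smoothing spline when that fit failed.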

[2] = system: SUDIPGVI (diffuse intrinsic pontine glioma line); test: as above
Procedure, shortened: as §1

[3] = system: DIPGX7 (H3.3 K27M diffuse intrinsic pontine glioma line); test: EC50 (inflection of fitted growth-inhibition curve) (log10 M)
Procedure, shortened: (§2)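 Patient-derived pHGG/DIPG cell lines and astrocyte controls were grown on 1% Geltrex-coated 384-well plates and exposed by pin tool to a 10-point threefold dilution series (mean top concentration 35 μM), in triplicate. Exposure was 7 days (iAstro 3 days) at 37 °C, 5% CO2. CellTiter-Glo luminescence was log2-transformed, normalised per plate to % activity between negative (solvent) and positive control wells, and pooled. EC50 and maximal response (yFin) come from the lowest-AICc three- or four-parameter log-logistic fit.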

[4] = system: iAstro; test: as above
Procedure, shortened: as §2

[5] = system: DIPGX37 (H3.3 K27M diffuse intrinsic pontine glioma line); test: as above
Procedure, shortened: as §2

[6] = system: SUDIPGVI; test: as above
Procedure, shortened: as §2

[7] = system: SUDIPGIV (diffuse intrinsic pontine glioma line); test: as above
Procedure, shortened: as §2

[8] = system: SUDIPGXIX (diffuse intrinsic pontine glioma line); test: as above
Procedure, shortened: as §2

[9] = system: SUDIPGXVII (diffuse intrinsic pontine glioma line); test: as above
Procedure, shortened: as §2

[10] = system: HGGX6 (H3.3 G34R paediatric high-grade glioma line); test: as above
Procedure, shortened: as §2

[11] = system: SUDIPGXIII (diffuse intrinsic pontine glioma line); test: as above
Procedure, shortened: as §2

[12] = system: HGGX42 (H3.3 G34R paediatric high-grade glioma line); test: as above
Procedure, shortened: as §2

[13] = system: DIPGX9 (diffuse intrinsic pontine glioma line); test: as above
Procedure, shortened: as §2

[14] = system: DIPGX29 (H3.3 K27M diffuse intrinsic pontine glioma line); test: as above
Procedure, shortened: as §2

[15] = system: SUDIPGXXI (diffuse intrinsic pontine glioma line); test: as above
Procedure, shortened: as §2

[16] = system: HABS (astrocyte control); test: as above
Procedure, shortened: as §2

[17] = system: HGGX39 (paediatric high-grade glioma line); test: as above
Procedure, shortened: as §2

[18] = system: HGGX2 (paediatric high-grade glioma line); test: as above
Procedure, shortened: as §2

| Structure (SMILES) | area under dose-response curve [1] | area under dose-response curve [2] | EC50 (log10 M) [3] | EC50 (log10 M) [4] | EC50 (log10 M) [5] | EC50 (log10 M) [6] | EC50 (log10 M) [7] | EC50 (log10 M) [8] | EC50 (log10 M) [9] | EC50 (log10 M) [10] | EC50 (log10 M) [11] | EC50 (log10 M) [12] | EC50 (log10 M) [13] | EC50 (log10 M) [14] | EC50 (log10 M) [15] | EC50 (log10 M) [16] | EC50 (log10 M) [17] | EC50 (log10 M) [18] |
| --- | --- | --- | --- | --- | --- | --- | --- | --- | --- | --- | --- | --- | --- | --- | --- | --- | --- | --- |
| CCN(CC)CCNC(=O)c1c(C)[nH]c(/C=C2\C(=O)Nc3ccc(F)cc32)c1C [SUNITINIB] | 113 | 124 | -4.99 | -5.05 | -4.77 | -5.01 | -4.83 | -5.05 | -4.97 | -4.88 | -4.94 | -5.25 | -5.03 | -4.95 | -5.41 | -4.96 | -4.77 | -5.16 |
| CN(C)C/C=C/C(=O)Nc1ccc(C(=O)Nc2cccc(Nc3ncc(Cl)c(-c4c[nH]c5ccccc45)n3)c2)cc1 [THZ1] | 186 | 345 | -8.02 | -5.76 | -7.71 | -8.04 | -7.91 | -8.07 | -7.78 | -7.28 | -7.62 | -7.25 | -8.19 | -7.44 | -8.32 | -6.72 | -7.15 | -7.58 |
